Reference: PMC5191990 (Bioorganic & medicinal chemistry, 2016)
Counter-ions that a name gives are not always drawn. Values belong to the compound of their own block, whether it stands above or below them.

What was measured:
[1] = tested on: Parental OVCAR-8 cells; experiment: Cell proliferation; assay type: cell-based; settings: Homo sapiens, OVCAR-8, 96 h, read-out: Parental OVCAR-8 IC50 (µM) ± SD
[2] = tested on: β-III overexpressing HeLa cells; experiment: Cell proliferation; assay type: cell-based
[3] = target: T1, purified bovine brain tubulin (Bos taurus, UniProt P81947+Q6B856); experiment: Tubulin assembly assay; assay type: biochemical; settings: ratio of tubulin assembly IC50 vs 5
[4] = tested on: WT HeLa cells; experiment: Cell proliferation; assay type: cell-based; settings: Homo sapiens, 96 h, read-out: WT HeLa IC50 (µM) ± SD
[5] = target: T1, purified bovine brain tubulin; settings: read-out: tubulin assembly IC50 (µM) ± SD; cited from earlier work
[6] = tested on: BLBC MDA-MB-435 and U251 glioma xenografts, 4T1 triple negative breast allograft; settings: cited from earlier work
[7] = tested on: Pgp overexpressing NCI/ADR-RES cells; experiment: Cell proliferation; assay type: cell-based; settings: Homo sapiens, 96 h, read-out: Pgp overexpressing NCI/ADR-RES IC50 (µM) ± SD

T1 sequence (P81947 whole entry): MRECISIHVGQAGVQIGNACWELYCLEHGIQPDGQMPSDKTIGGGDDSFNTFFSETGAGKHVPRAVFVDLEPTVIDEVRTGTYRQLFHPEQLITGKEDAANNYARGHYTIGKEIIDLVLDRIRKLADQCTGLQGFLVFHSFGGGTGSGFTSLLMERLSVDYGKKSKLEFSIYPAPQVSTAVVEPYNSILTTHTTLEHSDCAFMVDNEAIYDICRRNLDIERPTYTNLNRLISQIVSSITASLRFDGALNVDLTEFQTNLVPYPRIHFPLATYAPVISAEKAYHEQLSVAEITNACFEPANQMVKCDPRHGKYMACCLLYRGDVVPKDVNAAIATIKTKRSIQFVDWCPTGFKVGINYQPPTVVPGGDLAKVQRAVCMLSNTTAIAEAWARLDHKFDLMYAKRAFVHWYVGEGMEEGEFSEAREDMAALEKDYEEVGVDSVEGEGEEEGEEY
T1 sequence (Q6B856 whole entry): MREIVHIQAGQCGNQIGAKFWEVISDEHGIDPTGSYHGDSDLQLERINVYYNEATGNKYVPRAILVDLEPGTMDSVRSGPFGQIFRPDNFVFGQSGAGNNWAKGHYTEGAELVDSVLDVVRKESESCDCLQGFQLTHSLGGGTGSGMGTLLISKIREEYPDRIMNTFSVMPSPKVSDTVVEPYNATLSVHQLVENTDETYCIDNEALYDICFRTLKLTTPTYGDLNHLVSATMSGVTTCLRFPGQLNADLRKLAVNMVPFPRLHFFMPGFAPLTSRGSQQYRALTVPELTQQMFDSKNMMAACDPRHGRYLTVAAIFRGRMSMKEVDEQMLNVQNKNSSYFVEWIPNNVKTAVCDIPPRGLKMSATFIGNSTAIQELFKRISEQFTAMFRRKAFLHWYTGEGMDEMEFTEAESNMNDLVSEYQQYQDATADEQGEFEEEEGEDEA

SMILES: COc1ccc2c(c1)CCCN2c1nc(C)nc2c(Cc3ccccc3)c[nH]c12 [5·HCl, 1-(7-benzyl-2-methyl-5H-pyrrolo[3,2-d]pyrimidin-4-yl)-6-methoxy-1,2,3,4-tetrahydroquinoline hydrochloride]
IC50 [1]: 0.12 ± 0.004 µM

SMILES: COc1ccc(N(C)c2nc(C)nc3c(Cc4ccccc4)cn(C)c23)cc1.Cl [7·HCl, 7-benzyl-N-(4-methoxyphenyl)-N,2,5-trimethyl-5H-pyrrolo[3,2-d]pyrimidin-4-amine hydrochloride]
fold less potent in βIII-tubulin overexpressing HeLa than in wild type HeLa ([2]; isogenic HeLa cell line pair): equal potency
fold more potent than 5 in tubulin assembly [3]: ~7 fold

SMILES: COc1ccc(/C=C\c2cc(OC)c(OC)c(OC)c2)cc1O [CA, combretastatin A-4]
IC50 [4]: 0.0018 ± 0.0004 µM

SMILES: COc1ccc(N(C)c2nc(C)nc3c(Cc4ccccc4)c[nH]c23)cc1 [Compound 3]
IC50 [5]: 21 ± 1 µM
toxicity to animals [6]: without overt toxicity
tumor size and vascularity ([6]; two flank xenograft models and 4T1 orthotopic allograft): reduced tumor size and vascularity

IC50 ([2]; Homo sapiens, HeLa, 96 h, read-out: β-III overexpressing HeLa IC50 (µM) ± SD): 0.016 ± 0.001 µM
SMILES: CC(=O)O[C@H]1C(=O)[C@@]2(C)[C@H]([C@H](OC(=O)c3ccccc3)[C@]3(O)C[C@H](OC(=O)[C@H](O)[C@@H](NC(=O)c4ccccc4)c4ccccc4)C(C)=C1C3(C)C)[C@]1(OC(C)=O)CO[C@@H]1C[C@@H]2O [Paclitaxel, paclitaxel]
IC50 [7]: 2.5 µM
IC50 [1]: 0.005 ± 0.001 µM
